Assay results from patent US4259336A, “4-Hydroxy-2H-[1]-benzothieno [2,3-e]-1,2-thiazine-3-carboxamide-1,1-dioxides and salts thereof” (Boehringer Ingelheim GmbH, priority 1978, dated 1981).
Like-named read-outs stand apart in the source and are kept apart here.

Experiments:
[1] = Acute toxicity, peroral, rats; assay type: in vivo; conditions: rat, in vivo, po, suspension in 1% methyl-cellulose, observed 24 hours
Method: (§1) The acute toxicity was determined in rats of both sexes (1:1) with a body weight of 120-150 gm. The test compound was perorally administered as a suspension in 1% methyl-cellulose (1 ml/100gm animal) by means of an esophageal sound.

rats = assay: Acute toxicity, peroral, rats; assay type: in vivo; conditions: 100 mg/kg p.o., observed 24 hours
Method: as §1

[2] = target: T1, prostaglandin synthetases (Bos taurus, UniProt O62664); assay: Anti-inflammatory activity: inhibition of prostaglandin biosynthesis (prostaglandin synthetases, microsomal extract from bovine seminal vesicles); assay type: biochemical; conditions: 14C-arachidonic acid substrate, read-out: EC50 in mol (50% decrease in the amount of prostaglandins)
T1 construct: isolated as a microsomal extract from bovine seminal vesicles; from tissue; host or cells: bovine seminal vesicles (microsomal extract)
T1 sequence (O62664 25-600): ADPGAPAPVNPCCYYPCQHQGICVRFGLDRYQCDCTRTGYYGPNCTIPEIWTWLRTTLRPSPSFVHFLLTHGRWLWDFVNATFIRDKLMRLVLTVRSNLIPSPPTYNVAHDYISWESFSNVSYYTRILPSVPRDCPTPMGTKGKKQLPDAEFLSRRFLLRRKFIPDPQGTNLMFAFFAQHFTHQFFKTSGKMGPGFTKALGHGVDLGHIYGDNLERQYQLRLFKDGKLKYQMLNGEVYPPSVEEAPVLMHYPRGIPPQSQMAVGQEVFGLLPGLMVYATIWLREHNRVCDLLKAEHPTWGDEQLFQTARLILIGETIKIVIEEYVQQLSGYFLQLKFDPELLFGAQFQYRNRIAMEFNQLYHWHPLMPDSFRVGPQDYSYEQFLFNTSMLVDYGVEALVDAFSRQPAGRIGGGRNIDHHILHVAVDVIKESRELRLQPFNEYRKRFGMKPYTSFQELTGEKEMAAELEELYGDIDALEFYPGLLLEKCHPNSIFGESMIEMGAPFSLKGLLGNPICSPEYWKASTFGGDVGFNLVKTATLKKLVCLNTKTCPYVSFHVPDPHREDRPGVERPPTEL
Method: Therefore, the anti-inflammatory activity was determined as the activity against the prostaglandin synthetases:
^14 C-arachidonic acid served as the substrate. The prostaglandins biosynthetisized therefrom were separated chromatographically from the ^14 C-arachidonic acid, and the remaining substrate and product were measured radiochemically.

[3] = test system: thrombocyte aggregation in platelet-rich plasma of healthy test persons (collagen); assay: Inhibition of blood-platelet aggregation (Born test), collagen-induced, platelet-rich plasma; assay type: cell-based, healthy test persons (human); conditions: Homo sapiens, read-out: Percentage change in light permeability of plasma (Born test); for inhibition at 20 µM: 2.10^-5 mol/liter; for inhibition at 2 µM: 2.10^-6 mol/liter; for inhibition at 1 µM: 10^-6 mol/liter; for inhibition at 0.2 µM: 2.10^-7 mol/liter
Method: The decrease in the optical density of platelet suspensions was measured photometrically and recorded after the addition of collagen. From the angle of inclination of the density curve the velocity of aggregation was estimated. The optical density was taken as the point on the curve where the most light was transmitted. The doses of collagen were chosen so as to be sufficient to produce irreversible aggregation. […] Commercial collagen sold by Hormonchemie, Munich, Germany, was used.

[4] = collagen, =% decrease in aggregation vs control
[5] = 10^-5 mol/liter, collagen, =% decrease in aggregation vs control

| SMILES | LD50 at 24 h [1] [mg/kg] | animals died (rats) | inhibition at 20 µM [3, 4] [%] | inhibition at 2 µM [3, 4] [%] | EC50 ([2]; DMSO 2%) [nM] | other results |
| --- | --- | --- | --- | --- | --- | --- |
| Cc1nc(NC(=O)C2=C(O)c3sc4ccccc4c3S(=O)(=O)N2C)sc1C [K, N-(4,5-Dimethyl-2-thiazolyl)-4-hydroxy-2-methyl-2H-[1]-benzothieno [2,3-e]-1,2-thiazine-3-carboxamide-1,1-dioxide] | > 100 | 0 out of 10 |  |  |  | EC50 ([2]; DMSO 10%): 250 nM |
| CC(=O)Oc1ccccc1C(=O)O [V, Acetylsalicyclic acid, reference compound] |  |  |  |  |  | inhibition at 10 µM [3]: 13%; inhibition at 30 µM [3]: 45% |
| Cc1ccnc(NC(=O)C2=C(O)c3sc4cc(Cl)ccc4c3S(=O)(=O)N2C)c1 [G, 7-Chloro-4-hydroxy-2-methyl-N-(4-methyl-2-pyridyl)-2H-[1]-benzothieno [2,3-e]-1,2-thiazine-3-carboxamide-1,1-dioxide] |  |  | 66 | 33 |  |  |
| Cc1ccnc(NC(=O)C2=C(O)c3sc4cc(C)ccc4c3S(=O)(=O)N2C)c1 [E, 2,7-Dimethyl-4-hydroxy-N-(4-methyl-2-pyridyl)-2H-[1]-benzothieno [2,3-e]-1,2-thiazine-3-carboxamide-1,1-dioxide] |  |  | 72 | 34 |  |  |
| CN1C(C(=O)Nc2nccs2)=C(O)c2ccccc2S1(=O)=O [W, Sudoxicam, reference compound] |  |  |  |  | 7000 |  |
| CN1C(C(=O)Nc2nccs2)=C(O)c2sc3ccccc3c2S1(=O)=O [A, 4-Hydroxy-2-methyl-N-(2-thiazolyl)-2H-[1] benzothieno-[2,3-e]-1,2-thiazine-3-carboxamide-1,1-dioxide] | > 100 | 0 out of 10 |  |  | 39 | inhibition at 10 µM [3, 5]: 94%; inhibition at 1 µM [3, 4]: 73%; inhibition at 0.1 µM ([3]; 10^-7 mol/liter, collagen, =% decrease in aggregation vs control): 14% |
| Cc1cccc(NC(=O)C2=C(O)c3sc4ccccc4c3S(=O)(=O)N2C)n1 [B, 4-Hydroxy-2-methyl-N-(6-methyl-2-pyridyl)-2H-[1] benzothieno [2,3-e]-1,2-thiazine-3-carboxamide-1,1-dioxide] |  |  |  |  |  | inhibition at 4 µM ([3]; 4.10^-6 mol/liter, collagen, =% decrease in aggregation vs control): 100%; inhibition at 0.4 µM ([3]; 4.10^-7 mol/liter, collagen, =% decrease in aggregation vs control): 71% |
| Cc1ccnc(NC(=O)C2=C(O)c3sc4ccccc4c3S(=O)(=O)N2C)c1 [D, 4-Hydroxy-2-methyl-N-(4-methyl-2-pyridyl)-2H-[1]-benzothieno-[2,3-e]-1,2-thiazine-3-carboxamide-1,1-dioxide] |  |  | 88 | 60 |  | inhibition at 0.2 µM [3, 4]: 19% |
| CN1C(C(=O)Nc2ncc(Cl)s2)=C(O)c2sc3ccccc3c2S1(=O)=O [J, N-(5-Chloro-2-thiazolyl)-4-hydroxy-2-methyl-2H-[1] benzothieno [2,3-e]-1,2-thiazine-3-carboxamide-1,1-dioxide] | > 100 | 0 out of 10 |  |  | 47 |  |
| Cc1csc(NC(=O)C2=C(O)c3sc4ccccc4c3S(=O)(=O)N2C)n1 [C, 4-Hydroxy-2-methyl-N-(4-methyl-2-thiazolyl)-2H-[1] benzothieno [2,3-e]-1,2-thiazine-3-carboxamide-1,1-dioxide] | > 100 | 0 out of 10 |  |  | 21 | inhibition at 10 µM [3, 5]: 93%; inhibition at 1 µM [3, 4]: 57% |
| Cc1cccc(NC(=O)C2=C(O)c3sc4cc(Cl)ccc4c3S(=O)(=O)N2C)n1 [H, 7-Chloro-4-hydroxy-2-methyl-N-(6-methyl-2-pyridyl)-2H-[1] benzothieno [2,3-e]-1,2-thiazine-3-carboxamide-1,1-dioxide] |  |  | 89 | 88 |  | inhibition at 0.2 µM [3, 4]: 33% |
| CN1C(C(=O)Nc2nc3ccccc3s2)=C(O)c2sc3ccccc3c2S1(=O)=O [I, N-(2-Benzothiazolyl)-4-hydroxy-2-methyl-2H-[1] benzothieno [2,3-e]-1,2-thiazine-3-carboxamide-1,1-dioxide] | > 100 | 0 out of 10 |  |  | 22 |  |
| Cc1ccc2c3c(sc2c1)C(O)=C(C(=O)Nc1cccc(C)n1)N(C)S3(=O)=O [F, 2,7-Dimethyl-4-hydroxy-N-(6-methyl-2-pyridyl)-2H-[1]-benzothieno [2,3-e]-1,2-thiazine-3-carboxamide-1,1-dioxide] |  |  | 90 | 77 |  | inhibition at 0.2 µM [3, 4]: 30% |
